According to US20150031102A1, “METHODS AND COMPOSITIONS FOR ENHANCED PRODUCTION OF BUTANOL BY CLOSTRIDIA” (Butrolix LLC, priority 2012, published 2015):
Marks after values point to notes of the source that are not given here.

Test system: C. acetobutylicum
Test: Continuous culture, 2.5 L, dilution rate 0.01 per hour, 20 days (butanol, residual glucose, optical density, pH, yield, productivity)
Type: cell-based, Clostridium acetobutylicum
Details: for Optical density (600 nm): 50 nM BP110517 and its control; for Productivity / Yield / Butanol: 50 nM peptide, Table 53; for Butanol: average ± SD of triplicate samples; for Average Butanol / Average Glucose: Treated (50 nM)
Experimental: Lastly, 2.5 L continuous culture studies were conducted using the optimum peptide treatment level that was determined by the sequential batch transfer experiments. An untreated and a peptide-treated culture were grown in parallel, identical vessels with identical dilution rates for 20 days. The continuous cultures were initiated by inoculating 2.25 L of sterile medium in each culture vessel using 250 mL of peptide-treated and untreated batch cultures that had been grown for 24 hours. The batch cultures used as inoculum were the third of sequential batch transfer cultures, which made inoculation of the continuous cultures the fourth sequential transfer. After inoculation, the continuous cultures were grown for 24 hours before beginning to feed fresh medium at a rate of 0.01 volumes per hour. Triplicate samples were taken from each continuous culture every 24 hours. Optical density of the replicates was measured and culture supernatants were recovered following centrifugation and analyzed later for butanol and residual glucose concentrations. The analyses were used to calculate yield and productivity of the cultures.
Clostridium acetobutylicum strain ATCC 824 was used in all experiments and the growth medium used for sequential batch transfer, time course, and continuous culture experiments contained yeast extract, casamino acids, L-cysteine, L-asparagine, phosphate buffer, trace minerals, and 6% glucose. What are believed to be quorum-sensing peptides that were used in the experiments were chemically synthesized peptides SEQ ID NO: 143 (amino acid sequence: SYPGWSW) and SEQ ID NO: 144 (amino acid sequence: ILILISG). Routine growth of the bacteria as well as the sequential batch and time course experiments were conducted in a Form a Scientific Model 1029 anaerobic gas chamber at 32° C. Continuous cultures were performed at 32° C. using duplicate New Brunswick Scientific BioFlo 3000 apparati with a dilution rate of 0.01 volume per hour, 75 rpm agitation, and nitrogen gas sparging. Optical density of culture samples was measured at 600 nm in a Beckman DU 600 series spectrophotometer and glucose was analyzed using a YSI Model 2700 Select Biochemistry Analyzer with internal glucose calibration. Butanol concentrations were determined by measuring experimental and standard samples using a Varian Saturn 3 Gas Chromatograph/Mass Spectrometer and calculating butanol concentrations using standard curves.
Data from continuous cultures using a 6% glucose medium in vessels with a working volume of 2.5 L run at a dilution rate of 0.01 per hour. Two vessels were run in parallel, one of which was treated with 50 nM of peptide SEQ ID NO: 143 and the other was untreated. The vessels were sparged continuously with nitrogen gas to maintain anaerobic conditions and were agitated at 75 rpm. On Day 0, the vessels were inoculated with a 1/10 volume (250 mL) of overnight cultures that were either treated with peptide or untreated, and that were the third transfer of the cultures, which made inoculation of the continuous cultures the fourth transfer. Triplicate samples were collected aseptically from each vessel immediately after inoculation and every 24 hours thereafter. The cultures were allowed to grow for 24 hours prior to beginning to feed fresh medium, and were maintained for 20 days each, without pH control. The optical density of each sample was measured immediately at 600 nm, the samples were centrifuged to remove cells, and the cell-free supernatants were frozen for later analysis. A representative experiment is shown in FIG. 19 and Tables 34 and 35.
Using the optimum peptide treatment level that was determined by the sequential batch transfer experiments, 2.5 L continuous culture studies were conducted. An untreated and a peptide-treated culture were grown in parallel, identical vessels using the same dilution rates for 20 days for each of the peptides BP110517 and BP1106213. […]

[1] = 50 nM BP110517, last five days of culture
[2] = 24 hour period preceding day 10
[3] = 24 hour period preceding day 11
[4] = 24 hour period preceding day 12
[5] = 24 hour period preceding day 13
[6] = 24 hour period preceding day 14
[7] = 24 hour period preceding day 15
[8] = 24 hour period preceding day 16
[9] = 24 hour period preceding day 17
[10] = 24 hour period preceding day 18
[11] = 24 hour period preceding day 19
[12] = 24 hour period preceding day 20

## SYPGWSW [peptide SEQ ID NO: 143]
50 nM BP110517, between days 5 and 9
  Butanol content compared with the control: significantly more butanol than the control
[1]
  Butanol content compared with the control: significantly greater than the control
  Butanol level lower than earlier in the culture period: roughly 75%
After day 13, recovered after day 17
  Optical density (600 nm): less than 0.500
First 9 days
  Optical density (600 nm): around 2.0
24 hour period preceding day 1
  Productivity: 0.53 g Butanol/L-h
  Yield: 0.19 g Butanol/g Glucose
24 hour period preceding day 2
  Productivity: −0.17 g Butanol/L-h
  Yield: −0.28 g Butanol/g Glucose
24 hour period preceding day 3
  Productivity: 0.07 g Butanol/L-h
  Yield: 0.11 g Butanol/g Glucose
24 hour period preceding day 4
  Productivity: 0.29 g Butanol/L-h
  Yield: 0.46 g Butanol/g Glucose
24 hour period preceding day 5
  Productivity: 0.24 g Butanol/L-h
  Yield: 0.39 g Butanol/g Glucose
24 hour period preceding day 6
  Productivity: 0.07 g Butanol/L-h
  Yield: 0.11 g Butanol/g Glucose
24 hour period preceding day 7
  Productivity: 0.14 g Butanol/L-h
  Yield: 0.23 g Butanol/g Glucose
24 hour period preceding day 8
  Productivity: 0.06 g Butanol/L-h
  Yield: 0.10 g Butanol/g Glucose
24 hour period preceding day 9
  Productivity: 0.07 g Butanol/L-h
  Yield: 0.11 g Butanol/g Glucose
[2]
  Productivity: 0.00 g Butanol/L-h
  Yield: 0.01 g Butanol/g Glucose
[3]
  Productivity: 0.20 g Butanol/L-h
  Yield: 0.33 g Butanol/g Glucose
[4]
  Productivity: 0.02 g Butanol/L-h
  Yield: 0.04 g Butanol/g Glucose
[5]
  Productivity: −0.11 g Butanol/L-h
  Yield: −0.18 g Butanol/g Glucose
[6]
  Productivity: 0.00 g Butanol/L-h
  Yield: 0.00 g Butanol/g Glucose
[7]
  Productivity: 0.03 g Butanol/L-h
  Yield: 0.05 g Butanol/g Glucose
[8]
  Productivity: 0.11 g Butanol/L-h
  Yield: 0.17 g Butanol/g Glucose
[9]
  Productivity: −0.01 g Butanol/L-h
  Yield: −0.02 g Butanol/g Glucose
[10]
  Productivity: 0.01 g Butanol/L-h
  Yield: 0.01 g Butanol/g Glucose
[11]
  Productivity: 0.06 g Butanol/L-h
  Yield: 0.09 g Butanol/g Glucose
[12]
  Productivity: 0.01 g Butanol/L-h
  Yield: 0.01 g Butanol/g Glucose
Day 0
  Butanol: 0.9 ± 0.0 g/L
  Average Butanol: 0.91 g/L
  Average Glucose: 66.1 g/L
Day 1
  Butanol: 12.8 ± 4.4 g/L
  Average Butanol: 12.81 g/L
  Average Glucose: 28.2 g/L
Day 2
  Butanol: 5.5 ± 0.7 g/L
  Average Butanol: 5.54 g/L
  Average Glucose: 3.3 g/L
Day 3
  Butanol: 5.8 ± 1.7 g/L
  Average Butanol: 5.78 g/L
  Average Glucose: 3.1 g/L
Day 4
  Butanol: 11.2 ± 5.3 g/L
  Average Butanol: 11.22 g/L
  Average Glucose: 2.4 g/L
Day 5
  Butanol: 14.2 ± 0.3^c g/L
  Average Butanol: 14.19 g/L
  Average Glucose: 0.0 g/L
Day 6
  Butanol: 12.3 ± 0.6^c g/L
  Average Butanol: 12.27 g/L
  Average Glucose: 0.0 g/L
Day 7
  Butanol: 12.6 ± 0.0^c g/L
  Average Butanol: 12.64 g/L
  Average Glucose: 0.4 g/L
Day 8
  Butanol: 11.0 ± 0.4 g/L
  Average Butanol: 10.95 g/L
  Average Glucose: 0.0 g/L
Day 9
  Butanol: 9.9 ± 0.3^c g/L
  Average Butanol: 9.89 g/L
  Average Glucose: 2.3 g/L
Day 10
  Butanol: 7.6 ± 0.3 g/L
  Average Butanol: 7.55 g/L
  Average Glucose: 13.4 g/L
Day 11
  Butanol: 10.6 ± 0.7 g/L
  Average Butanol: 10.55 g/L
  Average Glucose: 6.1 g/L
Day 12
  Butanol: 8.5 ± 2.8 g/L
  Average Butanol: 8.46 g/L
  Average Glucose: 0.0 g/L
Day 13
  Butanol: 3.6 ± 0.2 g/L
  Average Butanol: 3.63 g/L
  Average Glucose: 2.0 g/L
Day 14
  Butanol: 2.7 ± 0.4 g/L
  Average Butanol: 2.73 g/L
  Average Glucose: 14.2 g/L
Day 15
  Butanol: 2.8 ± 0.6 g/L
  Average Butanol: 2.82 g/L
  Average Glucose: 23.8 g/L
Day 16
  Butanol: 4.7 ± 0.1^c g/L
  Average Butanol: 4.71 g/L
  Average Glucose: 29.2 g/L
Day 17
  Butanol: 3.3 ± 0.2^c g/L
  Average Butanol: 3.32 g/L
  Average Glucose: 30.4 g/L
Day 18
  Butanol: 2.7 ± 0.0^c g/L
  Average Butanol: 2.68 g/L
  Average Glucose: 40.1 g/L
Day 19
  Butanol: 3.4 ± 0.1^c g/L
  Average Butanol: 3.41 g/L
  Average Glucose: 33.8 g/L
Day 20
  Butanol: 2.7 ± 0.2^c g/L
  Average Butanol: 2.69 g/L
  Average Glucose: 40.3 g/L
BP110517, continuous cultures (summary of findings)
  Effect on butanol yield and productivity: increased butanol yield and productivity
